From patent publication US20240109898A1, “SUBSTITUTED PYRAZOLO[1,5-A]PYRIMIDINE-7-AMINE DERIVATIVES, COMPOSITIONS AND PHARMACEUTICAL USES THEREOF” (SHANGHAI HAIYAN PHARMACEUTICAL TECHNOLOGY CO., LTD., priority 2021, published 2024)

What was measured:
CDK1/CycB = CDK1/CycB (Homo sapiens (Human), UniProt P06493); experiment: LANCE Ultra kinase activity inhibition assay, CDK1/CycB; assay type: biochemical; details: ATP 4 μM, highest compound concentration 10 μM
From the text: (§1) In the following LANCE Ultra test methods, kinase reagents were purchased from Carna Bioscience, reaction substrates and detection reagents were purchased from PerkinElmer, and the remaining reagents were purchased from Thermo scientific.
(§2) The assay for each kinase includes three test groups, i.e., a background group (Blank), a non-inhibition group (PC), and compound testing group (Test). The components included in each test group were as follows:
(§3) Working concentrations of the respective components of the Test groups in different kinase reactions were as follows.
(§4) Compounds: 10 mM of the compound to be tested was dissolved at room temperature and diluted with DMSO to gradient concentrations, followed by diluting with deionized water to prepare a 4× working solution of the compound, and the content of DMSO was 2%. The highest concentration of compound used in the CDK1 and CDK2 assays was 10 μM, and that in CDK9 assay was 1 μM.
(§5) The working concentration of DMSO in the reaction was 0.5%.
(§6) The above-mentioned components, after being mixed, were placed on a shaker and incubated at room temperature in the dark for 1 h. 10 μL of test solution was then added to all test groups (including Blank, PC and Test groups).
(§7) After the test solution was added, the solution was placed on a shaker and continually incubated at room temperature for 1 h in the dark. […] The inhibition rate was calculated as below.
(§8) 2. Inhibition rate=(PCRatio-TestRatio)/(PCRatio-BlankRatio)*100%; and
(§9) 3. XLFIT 5.0 software (IDBS, UK) was used to fit a graph by using the logarithmic value of the compound concentration as the X-axis and the inhibition rater as the Y-axis, and a four-parameter model was used to calculate the half inhibitory concentration IC50 of the compound.

CDK9/CycT = CDK9/CycT (Homo sapiens (Human), UniProt P50750); experiment: LANCE Ultra kinase activity inhibition assay, CDK9/CycT; assay type: biochemical; details: ATP 10 μM, highest compound concentration 1 μM
Procedure: as §1
The inhibiting effects on the kinase activity of CDK1/CycB (Carna bioscience, #04-102), CDK2/CycA (Carna bioscience, #04-103) and CDK9/CycT (Carna bioscience, #04-110) were determined by using LANCE Ultra method.
The kinase activity test was performed using a system (10 μL) containing the following components: substrate diluent prepared by mixing CDK kinase diluent, Ulight-Myelic basic protein (Perkin Elmer, #TRF-0109, hereinafter referred to as U-MBP) and ATP (Thermo scientific, #PV3227); and the compounds (i.e., analyte) prepared in the examples of the present disclosure. The assay for each kinase includes three test groups, i.e., a background group (Blank), a non-inhibition group (PC), and compound testing group (Test). The components included in each test group were as follows:
as §3, §4
1.33×reaction buffer: the components include 26.7 mM of MOPS, 6.67 mM of MgCl2, and 0.0133% Tween-20, which were stored in a 4° C. refrigerator and protected from light after preparation. Freshly prepared DTT was added to a final concentration of 5.33 mM before use.
as §5, §6
10 μL of test solution contains the following components: 16 mM of EDTA (Thermo scientific, #15575), 1 nM of phosphorylated U-MBP protein antibody (Perkin Elmer, #TRF-0201), and 1× detection damping fluid (Perkin Elmer, #CR97-100).
After the test solution was added, the solution was placed on a shaker and continually incubated at room temperature for 1 h in the dark. At the end of incubation, Victor X5 fluorescence microplate reader of Perkin Elmer was used to read the signal; the wavelength of excitation light was 320 nm, and the wavelengths of emission light were 615 nm and 665 nm. The inhibition rate was calculated as below.
1. For all groups, a value of 665 nm/615 nm (hereinafter referred to as Ratio) was calculated, and an inhibition rate was calculated based on the Ratio of each group;
as §8, §9

CDK2/CycA = CDK2/CycA (Homo sapiens (Human), UniProt P24941); experiment: LANCE Ultra kinase activity inhibition assay, CDK2/CycA; assay type: biochemical; details: ATP 10 μM, highest compound concentration 10 μM
From the text: as §1, §2, §3, §4, §5, §6, §7, §8, §9

[1] = In vivo pharmacokinetics in mice; details: mouse, plasma, po, male ICR mice, intragastric 10 mg/kg
Procedure: To investigate the pharmacokinetic behaviors of the compounds according to the present disclosure in mice and evaluate the pharmacokinetic characteristics thereof, the plasma concentrations of the compounds according to the present disclosure in mice at different time points after intravenous injection and intragastric administration of the compounds were determined by LC/MS/MS.
Experimental Protocol: • Experimental animals: healthy adult male ICR mice (12 mice with body weight of 30-40 g, free water and diet for intravenous injection group, and fasted overnight for intragastric administration group, free water and diet after 4 hours of administration) were provided by Beijing Vital River Laboratory Animal Co. LTD; • Administration route and dosage: the ICR mice were administrated intravenously via the tail vein (2 mg/kg, 5% DMSO, pH 4.5 20% Captisol) and intragastrically (10 mg/kg, 5% DMSO, pH 4.5 20% Captisol).
Blood sample collection: prior to the administration, animals satisfying the experimental requirements were selected, weighed and marked. Before collecting blood samples, the mice were tied together, and the blood of each administrated mouse was collected at the respective scheduled time points (for the intravenous administration, the blood was collected at 0.083 h, 0.25 h, 0.5 h, 1 h, 2 h, 4 h, 6 h, 7.5 h, and 24 h after the administration, respectively, for a total of 9 time points; for the intragastric administration, the blood was collected at 0.083 h, 0.25 h, 0.5 h, 1 h, 2 h, 4 h, 6 h, 7.5 h, and 24 h after the administration, respectively, for a total of 9 time points), about 100 μL of blood was collected from orbit. The blood was transferred to a 1.5 mL tube, which was pre-filled with K2EDTA, centrifuged for 4 minutes (8000 rpm, 4° C.), and the plasma removed within 15 minutes, which all the steps were finished in 15 minutes after the collection of blood samples. All samples were stored in −20° C. refrigerator before sample analysis. The drug concentrations were determined using the LC/MS/MS method, the pharmacokinetic parameters of the compounds of some examples of the present disclosure in mice at the same dosage and administration routes were lists in Table 3: […]

Chain of CDK1/CycB (P06493 whole entry): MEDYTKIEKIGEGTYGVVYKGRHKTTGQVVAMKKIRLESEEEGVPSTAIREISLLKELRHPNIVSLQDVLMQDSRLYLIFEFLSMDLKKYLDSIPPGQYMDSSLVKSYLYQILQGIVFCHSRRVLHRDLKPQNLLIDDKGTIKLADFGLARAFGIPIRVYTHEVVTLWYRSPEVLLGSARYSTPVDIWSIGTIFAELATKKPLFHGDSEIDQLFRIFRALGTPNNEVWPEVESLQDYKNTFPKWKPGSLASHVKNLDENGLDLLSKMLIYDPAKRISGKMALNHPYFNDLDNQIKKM
Chain of CDK1/CycB (P14635 whole entry partner): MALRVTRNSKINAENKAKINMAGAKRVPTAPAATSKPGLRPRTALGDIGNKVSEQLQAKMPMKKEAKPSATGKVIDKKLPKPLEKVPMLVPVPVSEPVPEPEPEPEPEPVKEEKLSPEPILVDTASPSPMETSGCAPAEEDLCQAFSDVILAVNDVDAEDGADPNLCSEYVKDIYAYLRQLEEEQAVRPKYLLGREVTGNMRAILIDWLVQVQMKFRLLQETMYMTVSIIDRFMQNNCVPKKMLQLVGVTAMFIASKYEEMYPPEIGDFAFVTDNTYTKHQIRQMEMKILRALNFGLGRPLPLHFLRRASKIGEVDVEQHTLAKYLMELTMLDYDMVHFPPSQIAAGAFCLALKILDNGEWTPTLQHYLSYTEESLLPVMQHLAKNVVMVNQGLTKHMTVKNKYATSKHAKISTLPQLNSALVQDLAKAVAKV
Chain of CDK9/CycT (P50750 whole entry): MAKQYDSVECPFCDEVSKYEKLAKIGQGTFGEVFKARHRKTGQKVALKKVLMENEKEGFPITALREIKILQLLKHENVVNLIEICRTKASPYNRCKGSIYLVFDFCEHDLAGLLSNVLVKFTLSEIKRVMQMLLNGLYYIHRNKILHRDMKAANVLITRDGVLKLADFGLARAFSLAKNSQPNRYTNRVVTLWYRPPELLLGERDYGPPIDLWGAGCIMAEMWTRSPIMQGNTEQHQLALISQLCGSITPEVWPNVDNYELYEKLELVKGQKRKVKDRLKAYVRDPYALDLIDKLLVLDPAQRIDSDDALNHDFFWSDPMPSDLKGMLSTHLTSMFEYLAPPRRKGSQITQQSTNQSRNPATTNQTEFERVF
Chain of CDK9/CycT (O60563 whole entry partner): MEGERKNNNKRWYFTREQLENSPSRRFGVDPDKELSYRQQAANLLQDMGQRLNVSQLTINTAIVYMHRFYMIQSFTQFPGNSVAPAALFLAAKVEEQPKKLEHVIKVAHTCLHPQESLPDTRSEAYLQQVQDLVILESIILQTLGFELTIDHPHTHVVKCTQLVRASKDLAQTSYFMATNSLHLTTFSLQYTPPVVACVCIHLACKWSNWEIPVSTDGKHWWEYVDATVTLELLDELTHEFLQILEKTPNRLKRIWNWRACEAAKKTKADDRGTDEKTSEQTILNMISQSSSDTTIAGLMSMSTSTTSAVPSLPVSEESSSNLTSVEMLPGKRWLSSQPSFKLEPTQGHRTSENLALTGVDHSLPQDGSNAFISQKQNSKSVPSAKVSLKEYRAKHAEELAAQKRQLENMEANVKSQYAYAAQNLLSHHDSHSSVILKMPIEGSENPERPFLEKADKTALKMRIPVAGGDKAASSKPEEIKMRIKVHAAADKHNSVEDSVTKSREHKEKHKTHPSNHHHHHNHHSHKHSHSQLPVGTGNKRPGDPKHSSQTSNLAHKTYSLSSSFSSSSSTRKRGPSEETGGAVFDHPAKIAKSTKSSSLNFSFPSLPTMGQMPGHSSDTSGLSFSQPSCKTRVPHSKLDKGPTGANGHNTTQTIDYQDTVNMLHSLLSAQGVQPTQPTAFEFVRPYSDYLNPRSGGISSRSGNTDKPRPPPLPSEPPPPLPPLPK

IC50 (CDK1/CycB) [µM] | IC50 (CDK9/CycT) [µM] | IC50 (CDK2/CycA) [µM] | AUC(0-t) ([1]; read-out: Area under the oral curve AUC0-t) [ng·h/mL] | Cmax ([1]; read-out: Oral maximum plasma concentration Cmax(ng/mL)) [ng/mL] | SMILES
7.1 | 0.056 | > 10 | – | – | CCC(c1cc(N[C@H]2CC[C@H](N)C2)n2nccc2n1)C1CCC1 (some centres unmarked) [Compound Z-43]
0.996 | 0.009 | 0.967 | – | – | Cc1cnn2c(N[C@H]3CC[C@H](N)C3)cc(C(C)C3CC3)nc12 (some centres unmarked) [Compound Z-32]
2.72 | 0.02 | > 10 | – | – | CC(C)(c1cc(N[C@H]2CC[C@H](N)C2)n2nccc2n1)C1CC1 [Compound Z-12]
1.36 | 0.01 | 1.55 | – | – | CCC(c1cc(N[C@H]2CC[C@H](N)C2)n2ncc(C)c2n1)C1CC1 (some centres unmarked) [Compound Z-30]
4.59 | 0.044 | > 10 | – | – | CCC(c1cc(N[C@H]2CC[C@H](NC(=N)N)C2)n2nccc2n1)C1CC1 (some centres unmarked) [Compound Z-67]
2.39 | 0.012 | > 10 | – | – | CC[C@H](c1cc(N[C@H]2CC[C@H](N)C2)n2nccc2n1)C1CC1 [Compound Z-28-P2]
1.62 | 0.005 | 1.8 | – | – | Cc1cnn2c(N[C@H]3CC[C@H](N)C3)cc([C@H](C)C3(C)CC3)nc12 [Compound Z-26-P1]
1.88 | 0.028 | 4.53 | – | – | CC(c1cc(N[C@H]2CC[C@H](NC(=N)N)C2)n2ncc(F)c2n1)C1CC1 (some centres unmarked) [Compound Z-71]
2.48 | 0.034 | > 10 | – | – | CC(C)(c1cc(N[C@H]2CC[C@H](N)C2)n2nccc2n1)C1CCC1 [Compound Z-39]
– | – | – | 2960 | 379 | C[C@H](c1cc(N[C@H]2CC[C@H](N)C2)n2nccc2n1)C1CCC1 [Compound Z-11-P1]
> 10 | 0.099 | > 10 | – | – | Cc1cnn2c(N[C@H]3CC[C@H](N)C3)cc([C@H](C)C3CC3)nc12 [Compound Z-32-P1]
0.995 | 0.018 | 0.332 | – | – | CC(=N)N[C@H]1CC[C@H](Nc2cc(C(C3CC3)C3CC3)nc3c(Cl)cnn23)C1 [Compound Z-66]
1.94 | 0.015 | 1.91 | – | – | N[C@H]1CC[C@H](Nc2cc(CC3CC3)nc3c(Cl)cnn23)C1 [Compound Z-55]
3.92 | 0.026 | 7.06 | – | – | Cc1cnn2c(N[C@H]3CC[C@H](N)C3)cc(C(C)C3(C)CC3)nc12 (some centres unmarked) [Compound Z-26]
3.47 | 0.025 | 4.68 | – | – | CC(=N)N[C@H]1CC[C@H](Nc2cc(C(C3CC3)C3CC3)nc3c(C(F)(F)F)cnn23)C1 [Compound Z-68]
1.86 | 0.011 | 3.07 | – | – | CCC(c1cc(N[C@H]2CC[C@H](N)C2)n2nccc2n1)C1CC1 (some centres unmarked) [Compound Z-28]
4.2 | 0.033 | > 10 | – | – | C=CC(C)(C)c1cc(N[C@H]2CC[C@H](N)C2)n2nccc2n1 [Compound Z-18]

IC50 (CDK1/CycB) [µM] | IC50 (CDK9/CycT) [µM] | IC50 (CDK2/CycA) [µM] | AUC(0-t) ([1]; read-out: Area under the oral curve AUC0-t) [ng·h/mL] | Cmax ([1]; read-out: Oral maximum plasma concentration Cmax(ng/mL)) [ng/mL] | SMILES
> 10 | 0.073 | > 10 | – | – | N[C@H]1CC[C@H](Nc2cc(CC3CC3)nc3ccnn23)C1 [Compound Z-3]
1.27 | 0.022 | 1.27 | – | – | CCc1cnn2c(N[C@H]3CC[C@H](N)C3)cc(C(C3CC3)C3CC3)nc12 [Compound Z-16]
7.18 | 0.027 | > 10 | – | – | N[C@H]1CC[C@H](Nc2cc(C(F)(F)C3CC3)nc3ccnn23)C1 [Compound Z-37]
1.47 | 0.068 | 2.22 | – | – | CC(c1cc(NC2CCN(N)C2)n2ncc(Cl)c2n1)C1CC1 (centres unmarked) [Compound Z-48]
1.77 | 0.013 | 8.64 | – | – | CC(c1cc(N[C@H]2CC[C@H](N)C2)n2nccc2n1)(C1CC1)C1CC1 [Compound Z-22]
2.08 | 0.008 | 2.78 | – | – | C[C@H](c1cc(N[C@H]2CC[C@H](N)C2)n2nccc2n1)C1(C)CC1 [Compound Z-27-P2]
2.26 | 0.023 | 3.88 | – | – | N[C@H]1CC[C@H](Nc2cc(C(F)C3CCC3)nc3ccnn23)C1 (some centres unmarked) [Compound Z-70]
0.84 | 0.014 | 0.278 | – | – | CC(=O)N[C@H]1CC[C@H](Nc2cc(C(C)C3CC3)nc3c(Cl)cnn23)C1 (some centres unmarked) [Compound Z-63]
5.31 | 0.02 | > 10 | – | – | C=CC(C)(C)c1cc(N[C@H]2CC[C@H](N)C2)n2ncc(F)c2n1 [Compound Z-58]
> 10 | 0.082 | > 10 | – | – | COC[C@H](c1cc(N[C@H]2CC[C@H](N)C2)n2nccc2n1)C1CC1 [Compound Z-44]
2.16 | 0.016 | 2.65 | – | – | N[C@H]1CC[C@H](Nc2cc(CC3CC3)nc3c(F)cnn23)C1 [Compound Z-54]
7.76 | 0.065 | 7.75 | – | – | Cc1cnn2c(N[C@H]3CC[C@H](N)C3)cc(CC3CCC3)nc12 [Compound Z-51]
4.86 | 0.047 | > 10 | – | – | N[C@H]1CC[C@H](Nc2cc(C(F)C3CC3)nc3ccnn23)C1 (some centres unmarked) [Compound Z-53]
2.53 | 0.084 | 2.92 | – | – | CC(C)c1cnn2c(N[C@H]3CC[C@H](N)C3)cc(C(C3CC3)C3CC3)nc12 [Compound Z-24]
4.89 | 0.02 | 6.57 | – | – | CC(=N)N[C@H]1CC[C@H](Nc2cc(C(C)C3CC3)nc3c(F)cnn23)C1 (some centres unmarked) [Compound Z-72]
1.15 | 0.01 | 1.81 | – | – | CC(C)(c1cc(N[C@H]2CC[C@H](N)C2)n2ncc(Cl)c2n1)C1CCC1 [Compound Z-46]

SMILES | IC50 (CDK1/CycB) [µM] | IC50 (CDK9/CycT) [µM] | IC50 (CDK2/CycA) [µM] | AUC(0-t) ([1]; read-out: Area under the oral curve AUC0-t) [ng·h/mL] | Cmax ([1]; read-out: Oral maximum plasma concentration Cmax(ng/mL)) [ng/mL]
CC(c1cc(NC2CCNC2)n2ncc(F)c2n1)C1CC1 (centres unmarked) [Compound Z-31] | 3.21 | 0.104 | 6.39 | – | –
N[C@H]1CC[C@H](Nc2cc(C(C3CC3)C3CC3)nc3ccnn23)C1 [Compound Z-1] | 1.96 | 0.018 | 5.65 | – | –
